Assay results from publication PMC4421842 (Nature Communications, 2015).
Values after ≈ are worked out from the molar mass of the structure shown. Values joined by “and” are separate entries in the source; they are usually repeats but may differ in a detail not shown here. Equal entries are not always repeated. Where two headings read alike, the source gives them in different places.

Experiments:
MRSA clinical isolates = test: microbe, parasite or virus in culture; assay type: cell-based, S. aureus; details: Staphylococcus aureus, MRSA, read-out: MIC
Protocol: MRSA and P. aeruginosa isolates were from Cubist Pharmaceuticals (Lexington, MA). VRE isolates were from a previously published collection. E. coli strains were obtained either from ATCC or Professor Cari Vanderpool (UIUC). A. baumannii isolates were obtained from Dr John Quale[51].
Susceptibility testing was performed in triplicate, using the microdilution broth method as outlined by the Clinical and Laboratory Standards Institute[52]. Mueller Hinton (MH) broth was used.

physchem = details: pH 7.4
Protocol: Three independent replicates of each compound were performed.

[1] = test system: WT S. aureus (ATCC 29213, WT); test: microbe, parasite or virus in culture; assay type: cell-based; details: for MIC against S. aureus 29213: ATCC 29213; for MIC: Staphylococcus aureus
[2] = Pharmacokinetic assessment; assay type: in vivo, C57BL/6 mice
Protocol: (§1) The animal studies (PK, in-vivo toxicity and in-vivo efficacy) were carried out in strict accordance with the recommendations in the Guide for the Care and Use of Laboratory Animals of the National Institutes of Health. […] In these studies, 10- to 12-week-old female C57BL/6 mice purchased from Charles River were used. DNM, DNM-2 and DNM-3 were formulated as slurries at 8.3 mg ml^−1 in 25% Cremophor RH40/water (v/v). Before beginning the pharmacokinetic assessment, mice were first tested for their ability to tolerate the DNM, DNM-2 and DNM-3 at 50 mg kg^−1 (p.o.). […] At specified time points, mice were killed and blood was collected, centrifuged and the serum was frozen at −80 °C until analysis. The proteins in a 50-μl aliquot of serum were precipitated by the addition of 50 μl of acetonitrile and the sample was centrifuged to remove the proteins. Serum concentrations of DNM, DNM-2 and DNM-3 were determined by HPLC. PK parameters were determined using GraphPad Prism Version 5.00 for Windows.

[3] = test system: FQR S. aureus (NRS3, FQR); test: MIC, microdilution broth assay, FQR MRSA NRS3; assay type: cell-based; details: for MIC: Staphylococcus aureus
[4] = Tolerability in mice (maximal tolerated dose); assay type: in vivo; details: increasing doses, highest dose evaluated 50 mg kg^−1 by oral gavage
Protocol: as §1

[5] = WT GyrA and WT ParC, three independent replicates
[6] = ATCC29213, ATCC 29213, WT GyrA and WT ParC, three independent replicates, read-out: MIC against S. aureus 29213
[7] = female, C57BL/6, mouse, in vivo, C57/BL6 mice, 50 mg kg-1 oral gavage, serum
[8] = NRS3, S84L GyrA and S80F ParC, three independent replicates
[9] = NRS3, S84L GyrA and S80F ParC, three independent replicates, read-out: MIC against S. aureus NRS3

CC1(C)S[C@@H]2[C@H](NC(=O)[C@H](N)c3ccccc3)C(=O)N2[C@H]1C(=O)O [Amp, Ampicillin, reference compound]
MIC (MRSA clinical isolates; strain SAU.1118): > 64 µg/mL | MIC (MRSA clinical isolates; strain SAU.3024): > 64 µg/mL | MIC (MRSA clinical isolates; strain SAU.3025): 64 µg/mL (≈ 183 µM) | MIC (MRSA clinical isolates; strain SAU.419): > 64 µg/mL | MIC (MRSA clinical isolates; strain SAU.42): 2 µg/mL (≈ 5.72 µM) | MIC (MRSA clinical isolates; strain SAU.446): > 64 µg/mL | MIC (MRSA clinical isolates; strain SAU.447): > 64 µg/mL | MIC (MRSA clinical isolates; strain SAU.555): > 64 µg/mL

CCc1cc(=O)n2c3c(c4c(cc13)c(C)cc(=O)n4C)OC2 [DNM-3]
solubility at 1 h (physchem): 27 µM (≈ 8 µg/mL) | MIC against S. aureus 29213 [1, 5]: 8 µg/mL (≈ 27 µM) | MIC [1, 6]: 8 µg/mL (≈ 27 µM) | AUC [2, 7]: 4000 ng·h/mL | Tmax [2, 7]: 1.1 h | half-life [2, 7]: 1.2 h | Cmax ([2]; female, C57BL/6, mouse, mice, 50 mg kg^−1 oral dose, serum, read-out: Cmax (peak serum concentration)): 4.3 µM and 1260 ng/mL | oral bioavailability / serum exposure ([2]; mice, 50 mg kg^−1 oral dose): intermediate level of bioavailability | area under the curve ([2]; mice, 50 mg kg^−1 oral dose, serum): 4000 ng·h/mL | MIC against S. aureus NRS3 [3, 8]: 0.12 µg/mL (≈ 0.405 µM) | tolerability [4]: well tolerated up to the highest dose evaluated

CO[C@@H]1[C@@H](OC(N)=O)[C@@H](O)[C@H](Oc2ccc3c(O)c(NC(=O)c4ccc(O)c(CC=C(C)C)c4)c(=O)oc3c2C)OC1(C)C [Novo, Novobiocin, reference compound]
MIC (MRSA clinical isolates; strain SAU.1118): 0.5 µg/mL (≈ 0.816 µM) | MIC (MRSA clinical isolates; strain SAU.3017): 0.5 µg/mL (≈ 0.816 µM) | MIC (MRSA clinical isolates; strain SAU.3021): 0.25 µg/mL (≈ 0.408 µM) | MIC (MRSA clinical isolates; strain SAU.419): 0.25 µg/mL (≈ 0.408 µM) | MIC (MRSA clinical isolates; strain SAU.42): 0.5 µg/mL (≈ 0.816 µM) | MIC (MRSA clinical isolates; strain SAU.447): 0.25 µg/mL (≈ 0.408 µM) | MIC (MRSA clinical isolates; strain SAU.555): 0.25 µg/mL (≈ 0.408 µM) | MIC (MRSA clinical isolates; strain SAU.846): 0.125 µg/mL (≈ 0.204 µM)

Cc1cc(=O)[nH]c2c(O)c3c(cc12)c(C)cc(=O)n3C [compound 1]
MIC [1, 6]: 2 µg/mL (≈ 7.4 µM) | MIC ([3]; NRS3, read-out: MIC against S. aureus NRS3): 4 µg/mL (≈ 14.8 µM)

CCc1cc(=O)n(C)c2c3c4c(cc12)c(C)cc(=O)n4CO3 [compound 4]
solubility at 1 h (physchem): 53 µM (≈ 15.7 µg/mL) | MIC against S. aureus 29213 [1, 5]: 8 µg/mL (≈ 27 µM) | MIC [1, 6]: 8 µg/mL (≈ 27 µM) | MIC against S. aureus NRS3 [3, 8]: 0.25 µg/mL (≈ 0.844 µM)

Cc1cc(=O)n(C)c2c3c4c(cc12)c(C)cc(=O)n4C(C)O3 (stereo not drawn) [compound 5]
MIC against S. aureus 29213 [1, 5]: 4 µg/mL (≈ 13.5 µM) | MIC [1, 6]: 4 µg/mL (≈ 13.5 µM)

CCCc1cc(=O)n2c3c(c4c(cc13)c(C)cc(=O)n4C)OC2 [compound 6]
MIC against S. aureus 29213 [1, 5]: 16 µg/mL (≈ 51.6 µM) | MIC [1, 6]: 16 µg/mL (≈ 51.6 µM) | MIC against S. aureus NRS3 [3, 8]: 0.25 µg/mL (≈ 0.806 µM)

CCCc1cc(=O)n(C)c2c3c4c(cc12)c(C)cc(=O)n4CO3 [compound 7]
MIC against S. aureus 29213 [1, 5]: 16 µg/mL (≈ 51.6 µM) | MIC [1, 6]: 16 µg/mL (≈ 51.6 µM) | MIC against S. aureus NRS3 [3, 8]: 1 µg/mL (≈ 3.22 µM)

CCCCCn1c(=O)cc(C)c2cc3c(C)cc(=O)n4c3c(c21)OC4 [compound 9]
MIC against S. aureus 29213 [1, 5]: 32 µg/mL (≈ 94.6 µM) | MIC [1, 6]: 32 µg/mL (≈ 94.6 µM) | MIC against S. aureus NRS3 [3, 8]: 0.25 µg/mL (≈ 0.739 µM)

CCCCCCn1c(=O)cc(C)c2cc3c(C)cc(=O)n4c3c(c21)OC4 [compound 10]
MIC against S. aureus 29213 [1, 5]: > 64 µg/mL | MIC [1, 6]: > 64 µg/mL | MIC against S. aureus NRS3 [3, 8]: 1 µg/mL (≈ 2.84 µM)

Cc1cc(=O)n2c3c(c4c(cc13)c(C)cc(=O)n4CC(C)C)OC2 [compound 11]
MIC against S. aureus 29213 [1, 5]: > 32 µg/mL | MIC [1, 6]: > 32 µg/mL | MIC against S. aureus NRS3 [3, 8]: 2 µg/mL (≈ 6.17 µM)

Cc1cc(=O)n2c3c(c4c(cc13)c(C)cc(=O)n4CC(C)(C)C)OC2 [compound 12]
MIC against S. aureus 29213 [1, 5]: 32 µg/mL (≈ 94.6 µM) | MIC [1, 6]: 32 µg/mL (≈ 94.6 µM) | MIC against S. aureus NRS3 [3, 8]: 16 µg/mL (≈ 47.3 µM)

CCc1cc(=O)n(C)c2c3c4c(cc12)c(CC)cc(=O)n4CO3 [compound 13]
solubility at 1 h (physchem): 48 ± 8 µM (≈ 14.9 µg/mL) | MIC against S. aureus 29213 [1, 5]: > 32 µg/mL | MIC [1, 6]: > 32 µg/mL | MIC against S. aureus NRS3 [3, 8]: 16 µg/mL (≈ 51.6 µM)

CCCCn1c(=O)cc(CCC)c2cc3c(CCC)cc(=O)n4c3c(c21)OC4 [compound 15]
MIC against S. aureus 29213 [1, 5]: > 32 µg/mL | MIC [1, 6]: > 32 µg/mL | MIC against S. aureus NRS3 [3, 8]: 32 µg/mL (≈ 84.1 µM)

CCCCCCCCCC(=O)N[C@@H](Cc1c[nH]c2ccccc12)C(=O)N[C@H](CC(N)=O)C(=O)N[C@@H](CC(=O)O)C(=O)N[C@@H]1C(=O)NCC(=O)N[C@@H](CCCN)C(=O)N[C@@H](CC(=O)O)C(=O)N[C@H](C)C(=O)N[C@@H](CC(=O)O)C(=O)NCC(=O)N[C@H](CO)C(=O)N[C@@H]([C@H](C)CC(=O)O)C(=O)N[C@@H](CC(=O)c2ccccc2N)C(=O)O[C@@H]1C [daptomycin, reference compound]
MIC [1, 6]: 2 µg/mL (≈ 1.23 µM) | MIC against S. aureus NRS3 [3, 8]: 8 µg/mL (≈ 4.94 µM) | MIC [3, 9]: 8 µg/mL (≈ 4.94 µM)

CC(=O)NC[C@H]1CN(c2ccc(N3CCOCC3)c(F)c2)C(=O)O1 [linezolid, reference compound]
MIC against S. aureus NRS3 [3, 8]: 0.5 µg/mL (≈ 1.48 µM) | MIC [3, 9]: 0.5 µg/mL (≈ 1.48 µM)

CN[C@H](CC(C)C)C(=O)N[C@H]1C(=O)N[C@@H](CC(N)=O)C(=O)N[C@H]2C(=O)N[C@H]3C(=O)N[C@H](C(=O)N[C@H](C(=O)O)c4cc(O)cc(O)c4-c4cc3ccc4O)[C@H](O)c3ccc(c(Cl)c3)Oc3cc2cc(c3O[C@@H]2O[C@H](CO)[C@@H](O)[C@H](O)[C@H]2O[C@H]2C[C@](C)(N)[C@H](O)[C@H](C)O2)Oc2ccc(cc2Cl)[C@H]1O [vancomycin, reference compound]
MIC (MRSA clinical isolates; strain SAU.1118): 2 µg/mL (≈ 1.38 µM) | MIC (MRSA clinical isolates; strain SAU.2996): 1 µg/mL (≈ 0.69 µM) | MIC (MRSA clinical isolates; strain SAU.3017): 1 µg/mL (≈ 0.69 µM) | MIC (MRSA clinical isolates; strain SAU.3021): 1 µg/mL (≈ 0.69 µM) | MIC (MRSA clinical isolates; strain SAU.3024): 2 µg/mL (≈ 1.38 µM) | MIC (MRSA clinical isolates; strain SAU.419): 4 µg/mL (≈ 2.76 µM) | MIC (MRSA clinical isolates; strain SAU.42): 1 µg/mL (≈ 0.69 µM) | MIC (MRSA clinical isolates; strain SAU.446): 2 µg/mL (≈ 1.38 µM) | MIC (MRSA clinical isolates; strain SAU.555): 1 µg/mL (≈ 0.69 µM) | MIC (MRSA clinical isolates; strain SAU.846): 8 µg/mL (≈ 5.52 µM) | MIC ([1]; ATCC29213, read-out: MIC against S. aureus 29213): 1 µg/mL (≈ 0.69 µM) | MIC against S. aureus NRS3 [3, 8]: 8 µg/mL (≈ 5.52 µM) | MIC [3, 9]: 8 µg/mL (≈ 5.52 µM)
